Laboratory results as given in patent EP2578210A1, “Rottlerin for the treatment of pulmonary hypertension and related diseases and disorders” (ATB Innovation Ltd., priority 2011, dated 2013).

Experiments:
Kv7.4 = molecular target: T1, Kv7.4 (Homo sapiens, UniProt P56696); assay: Two-electrode current recording of human KCNQ (Kv7) channels heterologously expressed in Xenopus laevis oocytes; format: cell-based
T1 construct: expressed in transfected cells; host or cells: Xenopus laevis oocytes
Description: (§1) Rottlerin was applied at different concentrations to the expressed Kv7 channels.

Kv7.3 = molecular target: T2, Kv7.3 (Homo sapiens, UniProt O43525); assay: as above; format: cell-based; conditions: different concentrations
T2 construct: expressed in transfected cells; host or cells: Xenopus laevis oocytes
Description: as §1

Kv7.5 = molecular target: T3, Kv7.5 (Homo sapiens, UniProt Q9NR82); assay: as above; format: cell-based; conditions: different concentrations
T3 construct: expressed in transfected cells; host or cells: Xenopus laevis oocytes
Description: as §1

Kv7.1/KCNE1 = molecular target: T4, Kv7.1/KCNE1 (Homo sapiens, UniProt P51787); assay: as above; format: cell-based
T4 construct: expressed in transfected cells; host or cells: Xenopus laevis oocytes
Description: as §1

Kv7.1 = molecular target: T5, Kv7.1 (Homo sapiens, UniProt P51787); assay: as above; format: cell-based
T5 construct: expressed in transfected cells; host or cells: Xenopus laevis oocytes
Description: as §1

Kv7.2 = molecular target: T6, Kv7.2 (Homo sapiens, UniProt O43526); assay: as above; format: cell-based; conditions: different concentrations
T6 construct: expressed in transfected cells; host or cells: Xenopus laevis oocytes
Description: as §1

other PKC isozymes = conditions: in vitro studies; cited from earlier work
PKCδ = PKCδ (Homo sapiens, UniProt Q05655); conditions: in vitro studies; cited from earlier work
PKCδ, sequence (Q05655 whole entry): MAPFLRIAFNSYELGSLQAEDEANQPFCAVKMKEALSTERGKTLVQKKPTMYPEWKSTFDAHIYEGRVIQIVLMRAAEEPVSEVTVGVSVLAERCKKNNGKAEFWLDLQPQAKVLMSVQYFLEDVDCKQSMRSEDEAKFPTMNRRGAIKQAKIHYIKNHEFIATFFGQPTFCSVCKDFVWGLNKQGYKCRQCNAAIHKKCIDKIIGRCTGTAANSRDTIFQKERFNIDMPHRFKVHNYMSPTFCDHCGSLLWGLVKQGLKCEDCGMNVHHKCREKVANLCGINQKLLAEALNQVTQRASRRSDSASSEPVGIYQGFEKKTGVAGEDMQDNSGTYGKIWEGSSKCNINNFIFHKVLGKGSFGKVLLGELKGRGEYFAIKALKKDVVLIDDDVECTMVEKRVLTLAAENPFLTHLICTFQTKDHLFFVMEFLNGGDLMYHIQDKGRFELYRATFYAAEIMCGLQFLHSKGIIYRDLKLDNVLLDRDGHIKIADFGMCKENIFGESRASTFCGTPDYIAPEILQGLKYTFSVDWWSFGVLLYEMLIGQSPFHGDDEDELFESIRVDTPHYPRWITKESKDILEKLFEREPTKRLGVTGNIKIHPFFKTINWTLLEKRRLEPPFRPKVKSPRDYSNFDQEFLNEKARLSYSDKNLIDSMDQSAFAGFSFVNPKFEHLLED

T1 sequence (P56696 whole entry): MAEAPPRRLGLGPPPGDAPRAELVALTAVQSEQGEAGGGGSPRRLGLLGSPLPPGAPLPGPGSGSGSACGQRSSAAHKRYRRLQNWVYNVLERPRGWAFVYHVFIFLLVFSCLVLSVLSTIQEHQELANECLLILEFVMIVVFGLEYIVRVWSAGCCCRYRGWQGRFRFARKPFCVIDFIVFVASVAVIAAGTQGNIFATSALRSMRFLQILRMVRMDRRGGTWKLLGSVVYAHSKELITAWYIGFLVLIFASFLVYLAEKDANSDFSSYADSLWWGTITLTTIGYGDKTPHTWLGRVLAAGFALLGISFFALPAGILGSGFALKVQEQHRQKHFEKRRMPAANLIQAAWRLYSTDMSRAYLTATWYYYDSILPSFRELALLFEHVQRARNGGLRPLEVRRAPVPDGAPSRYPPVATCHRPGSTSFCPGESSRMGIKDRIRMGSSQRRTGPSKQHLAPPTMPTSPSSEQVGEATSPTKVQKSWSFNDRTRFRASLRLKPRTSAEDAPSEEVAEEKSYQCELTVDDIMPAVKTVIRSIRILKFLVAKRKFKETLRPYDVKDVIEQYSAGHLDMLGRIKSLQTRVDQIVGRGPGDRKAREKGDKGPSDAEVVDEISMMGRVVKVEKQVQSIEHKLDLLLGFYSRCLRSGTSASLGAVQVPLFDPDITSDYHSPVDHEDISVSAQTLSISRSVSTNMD
T4 sequence (P51787 whole entry): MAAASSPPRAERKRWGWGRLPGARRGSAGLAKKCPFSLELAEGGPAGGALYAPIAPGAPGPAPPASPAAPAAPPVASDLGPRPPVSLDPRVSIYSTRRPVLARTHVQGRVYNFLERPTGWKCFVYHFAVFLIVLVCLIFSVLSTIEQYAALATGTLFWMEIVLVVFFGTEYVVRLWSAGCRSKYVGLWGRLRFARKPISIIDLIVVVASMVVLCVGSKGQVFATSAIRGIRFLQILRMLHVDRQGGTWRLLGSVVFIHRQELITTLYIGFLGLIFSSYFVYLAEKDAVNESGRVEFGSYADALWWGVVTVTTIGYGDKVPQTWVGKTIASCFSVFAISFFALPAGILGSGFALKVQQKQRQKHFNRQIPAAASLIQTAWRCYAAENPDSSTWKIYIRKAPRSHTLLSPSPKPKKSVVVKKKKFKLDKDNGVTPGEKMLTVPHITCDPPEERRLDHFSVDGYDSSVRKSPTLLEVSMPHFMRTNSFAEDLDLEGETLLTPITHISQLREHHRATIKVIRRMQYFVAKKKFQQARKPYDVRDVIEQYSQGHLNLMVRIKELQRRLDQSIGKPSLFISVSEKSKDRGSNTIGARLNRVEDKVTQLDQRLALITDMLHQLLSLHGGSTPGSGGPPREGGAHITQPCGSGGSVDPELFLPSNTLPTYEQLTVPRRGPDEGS
T5 sequence (P51787 whole entry): as above
T3 sequence (Q9NR82 whole entry): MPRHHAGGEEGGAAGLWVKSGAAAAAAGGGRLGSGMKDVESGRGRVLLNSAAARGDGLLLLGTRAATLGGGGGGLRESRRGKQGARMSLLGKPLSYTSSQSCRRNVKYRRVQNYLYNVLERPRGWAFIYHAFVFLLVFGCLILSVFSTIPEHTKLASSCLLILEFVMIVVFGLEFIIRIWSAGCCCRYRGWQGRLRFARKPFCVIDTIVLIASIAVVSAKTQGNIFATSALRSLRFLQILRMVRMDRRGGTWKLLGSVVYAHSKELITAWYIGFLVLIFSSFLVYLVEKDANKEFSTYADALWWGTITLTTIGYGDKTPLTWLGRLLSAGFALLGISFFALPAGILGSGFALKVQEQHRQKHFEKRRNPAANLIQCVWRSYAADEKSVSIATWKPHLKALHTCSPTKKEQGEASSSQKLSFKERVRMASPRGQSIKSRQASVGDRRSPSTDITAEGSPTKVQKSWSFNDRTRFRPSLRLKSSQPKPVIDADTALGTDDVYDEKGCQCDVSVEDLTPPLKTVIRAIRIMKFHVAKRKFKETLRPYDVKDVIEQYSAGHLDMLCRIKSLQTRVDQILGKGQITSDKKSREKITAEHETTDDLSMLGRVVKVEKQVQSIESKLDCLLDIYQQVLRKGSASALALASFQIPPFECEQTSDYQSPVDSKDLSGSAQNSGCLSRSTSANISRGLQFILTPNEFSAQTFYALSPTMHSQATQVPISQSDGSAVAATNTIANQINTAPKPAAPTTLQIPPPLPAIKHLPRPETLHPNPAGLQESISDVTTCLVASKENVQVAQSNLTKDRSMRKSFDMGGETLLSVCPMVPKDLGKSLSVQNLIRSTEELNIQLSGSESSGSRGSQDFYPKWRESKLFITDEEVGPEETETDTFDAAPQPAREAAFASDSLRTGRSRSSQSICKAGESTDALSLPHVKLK
T2 sequence (O43525 whole entry): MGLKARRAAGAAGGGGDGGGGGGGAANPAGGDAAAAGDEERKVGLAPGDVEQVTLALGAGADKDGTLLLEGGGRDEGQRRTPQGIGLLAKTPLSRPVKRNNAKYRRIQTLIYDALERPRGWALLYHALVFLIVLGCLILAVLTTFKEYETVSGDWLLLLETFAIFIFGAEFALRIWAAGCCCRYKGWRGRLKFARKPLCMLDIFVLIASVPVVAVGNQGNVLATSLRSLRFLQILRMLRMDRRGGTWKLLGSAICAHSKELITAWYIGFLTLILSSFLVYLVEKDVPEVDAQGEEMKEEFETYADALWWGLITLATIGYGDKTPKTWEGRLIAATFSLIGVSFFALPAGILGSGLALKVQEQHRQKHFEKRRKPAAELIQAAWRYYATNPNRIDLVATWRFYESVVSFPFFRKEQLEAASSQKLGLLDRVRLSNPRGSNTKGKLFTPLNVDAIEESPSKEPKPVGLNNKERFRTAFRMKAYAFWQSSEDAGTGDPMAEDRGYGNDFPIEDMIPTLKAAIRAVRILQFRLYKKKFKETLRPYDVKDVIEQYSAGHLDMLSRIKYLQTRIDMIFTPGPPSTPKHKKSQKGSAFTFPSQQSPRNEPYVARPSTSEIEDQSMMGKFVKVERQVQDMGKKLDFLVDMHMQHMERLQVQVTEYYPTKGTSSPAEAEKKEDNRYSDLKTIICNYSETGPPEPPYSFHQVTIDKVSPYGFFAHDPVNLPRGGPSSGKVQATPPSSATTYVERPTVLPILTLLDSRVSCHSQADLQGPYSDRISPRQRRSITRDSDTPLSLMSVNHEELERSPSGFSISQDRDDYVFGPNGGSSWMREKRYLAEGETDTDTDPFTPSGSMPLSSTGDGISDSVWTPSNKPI

For `CC(=O)c1c(O)c(C)c(O)c(Cc2c(O)c3c(c(C(=O)/C=C/c4ccccc4)c2O)OC(C)(C)C=C3)c1O` [rottlerin, 5,7-dihydroxy-2,2-dimethyl-6-(2,4,6-trihydroxy-3-methyl-5-acetylbenzyl)-8-cinnamoyl-1,2-chromene], the EC50 (Kv7.4) was 0.148 µM, the effect on currents (Kv7.4; Kv7.4, different concentrations) was “significant robust activation” and the “potency on Kv7.4 relative to Kv7.1/KCNE1” value (Kv7.4; more potent on Kv7.4 than on cardiac and epithelial Kv7.1/KCNE1) was “about 30 fold”. The effect on currents (Kv7.3) was “no significant effect”, the effect on currents (Kv7.5) was “no significant effect” and the EC50 (Kv7.1/KCNE1) was 4.9 µM. For the same compound, the effect on currents (Kv7.1/KCNE1; Kv7.1/KCNE1, different concentrations) was “significant robust activation”, the EC50 (Kv7.1) was 1.48 µM and the effect on currents (Kv7.1; Kv7.1, different concentrations) was “significant robust activation”. The effect on currents (Kv7.2) was “no significant effect”, the IC50 (other PKC isozymes) was 30 to 100 µM and the IC50 (PKCδ) was 3 to 6 µM.
